Data published in ChEMBL document CHEMBL5512641, “Evaluation of novel 2-(quinoline-2-ylthio)acetamide derivatives linked to diphenyl-imidazole as α-glucosidase inhibitors: Insights from in silico, in vitro, and in vivo studies on their anti-diabetic properties” (Eur J Med Chem, 2024).
Active and inactive are the calls of the source. No cut-off for these calls is given here.

What was measured:
Alpha-glucosidase [1] = target: T1, Alpha-glucosidase (Saccharomyces cerevisiae S288c, UniProt P53341+P38158+P07265); assay: Inhibition of Saccharomyces cerevisiae alpha-glucosidase using p-nitrophenyl-alpha-D-glucopyranoside as substrate measured after 20 mins by spectrophotometer; assay type: protein assay
Alpha-glucosidase [2] = target: T1, Alpha-glucosidase; assay: Competitive inhibition of Saccharomyces cerevisiae alpha-glucosidase using varying concentrations of p-nitrophenyl-alpha-D-glucopyranoside as substrate by Lineweaver-Burk plot analysis; assay type: protein assay
[3] = target: Alpha-glucosidase (Saccharomyces cerevisiae S288c) (UniProt P53341+P38158+P07265); assay: Potency index, ratio of acarbose IC50 to test compound IC50 for inhibition of Saccharomyces cerevisiae alpha-glucosidase using p-nitrophenyl-alpha-D-glucopyranoside as substrate measured after 20 mins by spectrophotometer; assay type: protein assay
Alpha-glucosidase [4] = target: T1, Alpha-glucosidase; assay: Inhibition of Saccharomyces cerevisiae alpha-glucosidase using p-nitrophenyl-alpha-D-glucopyranoside as substrate preincubated for 10 mins followed by substrate addition and measured after 20 mins by spectrophotometer; assay type: protein assay
Alpha-glucosidase [5] = target: T1, Alpha-glucosidase; assay: Uncompetitive inhibition of Saccharomyces cerevisiae alpha-glucosidase using varying concentrations of p-nitrophenyl-alpha-D-glucopyranoside as substrate by Lineweaver-Burk plot analysis; assay type: protein assay
Rattus norvegicus [6] = assay: Antidiabetic activity in high fat diet/streptozotocin induced diabetic Wistar albino rat model assessed as increase in body weight at 50 mg/kg, po administered once daily and measured for 28 days; assay type: functional, organism-based; settings: time 28.0 day
Rattus norvegicus [7] = assay: Antidiabetic activity in 16 hrs fasted high fat diet/streptozotocin induced diabetic Wistar albino rat model assessed as reduction in blood glucose level at 50 mg/kg, po pretreated for 30 mins followed by glucose administration and measured after 30 to 120 mins by oral glucose tolerance test; assay type: functional, organism-based; settings: time […]
Rattus norvegicus [8] = assay: Antidiabetic activity in high fat diet/streptozotocin induced diabetic Wistar albino rat model assessed as reduction in blood glucose level at 50 mg/kg, po administered once daily and measured on day 28 using overnight fasted rat blood by automatic blood glucose meter; assay type: functional; settings: time 28 day
Rattus norvegicus [9] = assay: Antidiabetic activity in high fat diet/streptozotocin induced diabetic rat Wistar albino model assessed as reduction in blood glucose level at 50 mg/kg, po administered once daily and measured on day 14 using overnight fasted rat blood by automatic blood glucose meter; assay type: functional, organism-based; settings: time 14.0 day
[10] = Acute toxicity in male Wistar albino rat assessed as tremors at 250 to 1000 mg/kg, po administered via gastric gavage and measured daily for 2 weeks; assay type: organism-based; settings: in vivo, 336 h, dose 250-1000 mg/kg
Rattus norvegicus [11] = assay: Antidiabetic activity in high fat diet/streptozotocin induced diabetic Wistar albino rat model assessed as reduction in blood glucose level at 10 mg/kg, po administered once daily and measured on day 28 using overnight fasted rat blood by automatic blood glucose meter; assay type: functional; settings: time 28 day
Rattus norvegicus [12] = assay: Antidiabetic activity in 16 hrs fasted high fat diet/streptozotocin induced diabetic Wistar albino rat model assessed as reduction in blood glucose level at 10 to 50 mg/kg, po pretreated for 30 mins followed by glucose administration and measured after 60 to 120 mins by oral glucose tolerance test; assay type: functional, organism-based; settings: dose 10-50 mg/kg, time 30-150 min
Rattus norvegicus [13] = assay: Antidiabetic activity in high fat diet/streptozotocin induced diabetic Wistar albino rat model assessed as reduction in blood glucose level at 50 mg/kg, po administered once daily and measured on day 21 using overnight fasted rat blood by automatic blood glucose meter; assay type: functional, organism-based; settings: time 21.0 day
Rattus norvegicus [14] = assay: Antidiabetic activity in high fat diet/streptozotocin induced diabetic Wistar albino rat model assessed as increase in body weight at 10 to 50 mg/kg, po administered once daily and measured for 28 days; assay type: functional, organism-based; settings: dose 10-50 mg/kg, time 28.0 day
[15] = Acute toxicity in male Wistar albino rat assessed as convulsions at 250 to 1000 mg/kg, po administered via gastric gavage and measured daily for 2 weeks; assay type: organism-based; settings: in vivo, 336 h, dose 250-1000 mg/kg
Rattus norvegicus [16] = assay: Antidiabetic activity in 16 hrs fasted high fat diet/streptozotocin induced diabetic Wistar albino rat model assessed as reduction in blood glucose level at 10 to 50 mg/kg, po pretreated for 30 mins followed by glucose administration and measured immediately by oral glucose tolerance test; assay type: functional, organism-based; settings: dose 10-50 mg/kg
[17] = Acute toxicity in male Wistar albino rat assessed as effect on sleeping at 250 to 1000 mg/kg, po administered via gastric gavage and measured daily for 2 weeks; assay type: organism-based; settings: in vivo, 336 h, dose 250-1000 mg/kg
Rattus norvegicus [18] = assay: Antidiabetic activity in high fat diet/streptozotocin induced diabetic Wistar albino rat model assessed as reduction in blood glucose level at 25 to 50 mg/kg, po administered once daily and measured on day 14 using overnight fasted rat blood by automatic blood glucose meter; assay type: functional, organism-based; settings: dose 25-50 mg/kg, time 14.0 day
[19] = Acute toxicity in male Wistar albino rat assessed as lethargy at 250 to 1000 mg/kg, po administered via gastric gavage and measured daily for 2 weeks; assay type: organism-based; settings: in vivo, 336 h, dose 250-1000 mg/kg
Rattus norvegicus [20] = assay: Antidiabetic activity in high fat diet/streptozotocin induced diabetic Wistar albino rat model assessed as reduction in blood glucose level at 20 mg/kg, po administered once daily and measured on day 28 using overnight fasted rat blood by automatic blood glucose meter; assay type: functional; settings: time 28 day
[21] = Acute toxicity in male Wistar albino rat assessed as animal death at 250 to 1000 mg/kg, po administered via gastric gavage and measured daily for 72 hrs to 2 weeks; assay type: organism-based; settings: in vivo, dose lower 250 mg/kg, time lower 3 day, dose upper 1000 mg/kg, time upper 14 day
Rattus norvegicus [22] = assay: Antidiabetic activity in high fat diet/streptozotocin induced diabetic Wistar albino rat model assessed as improvement in pancreatic islet architecture at 10 to 50 mg/kg, po administered once daily for 28 days by H and E staining based microscopic analysis; assay type: functional, organism-based; settings: dose 10-50 mg/kg, time 28.0 day
[23] = Acute toxicity in male Wistar albino rat assessed as salivation at 250 to 1000 mg/kg, po administered via gastric gavage and measured daily for 2 weeks; assay type: organism-based; settings: in vivo, 336 h, dose 250-1000 mg/kg
Rattus norvegicus [24] = assay: Antidiabetic activity in high fat diet/streptozotocin induced diabetic Wistar albino rat model assessed as reduction in blood glucose level at 10 to 50 mg/kg, po administered once daily and measured on day 7 using overnight fasted rat blood by automatic blood glucose meter; assay type: functional, organism-based; settings: dose 10-50 mg/kg, time 7.0 day
[25] = Acute toxicity in male Wistar albino rat assessed as symptoms of diarrhea at 250 to 1000 mg/kg, po administered via gastric gavage and measured daily for 2 weeks; assay type: organism-based; settings: in vivo, 336 h, dose 250-1000 mg/kg
Rattus norvegicus [26] = assay: Antidiabetic activity in 16 hrs fasted high fat diet/streptozotocin induced diabetic Wistar albino rat model assessed as reduction in blood glucose level at 25 to 50 mg/kg, po pretreated for 30 mins followed by glucose administration and measured after 30 mins by oral glucose tolerance test; assay type: functional, organism-based; settings: dose 25-50 mg/kg, time 60.0 min
[27] = Acute toxicity in male Wistar albino rat assessed as symptoms of toxicity at 250 to 1000 mg/kg, po administered via gastric gavage and measured daily for 72 hrs; assay type: organism-based; settings: in vivo, dose 250-1000 mg/kg
Rattus norvegicus [28] = assay: Antidiabetic activity in high fat diet/streptozotocin induced diabetic Wistar albino rat model assessed as reduction in blood glucose level at 10 to 50 mg/kg, po administered once daily and measured immediately by automatic blood glucose meter; assay type: functional, organism-based; settings: dose 10-50 mg/kg

O=C(CSc1nc2ccccc2cc1-c1nc(-c2ccccc2)c(-c2ccccc2)[nH]1)Nc1ccccc1Cl
IC50 (Alpha-glucosidase [1]): 1950 nM

O=C(CSc1nc2ccccc2cc1-c1nc(-c2ccccc2)c(-c2ccccc2)[nH]1)NCc1ccc(F)cc1
Ki (Alpha-glucosidase [2]): 1400 nM
IC50 (Alpha-glucosidase [1]): 1260 nM

O=C(CSc1nc2ccccc2cc1-c1nc(-c2ccccc2)c(-c2ccccc2)[nH]1)Nc1ccccc1
IC50 (Alpha-glucosidase [1]): 2100 nM
Ratio IC50 [3]: 375

Clc1ccccc1Cn1cc(CSc2nc(-c3ccccc3)c(-c3ccccc3)[nH]2)nn1
IC50 (Alpha-glucosidase [4]): 85600 nM

Cc1ccc(CNC(=O)CSc2nc3ccccc3cc2-c2nc(-c3ccccc3)c(-c3ccccc3)[nH]2)cc1
IC50 (Alpha-glucosidase [1]): 1480 nM

Cc1cccc(NC(=O)CSc2nc3ccccc3cc2-c2nc(-c3ccccc3)c(-c3ccccc3)[nH]2)c1C
IC50 (Alpha-glucosidase [1]): 2050 nM

O=C(CSc1nc2ccccc2cc1-c1nc(-c2ccccc2)c(-c2ccccc2)[nH]1)Nc1ccccc1F
IC50 (Alpha-glucosidase [1]): 2020 nM

COc1ccc2nc3cc(Cl)ccc3c(SCC(=O)Nc3ccc(C)cc3)c2c1
IC50 (Alpha-glucosidase [4]): 80000 nM

O=C(CSc1nc2ccccc2cc1-c1nc(-c2ccccc2)c(-c2ccccc2)[nH]1)NCc1ccccc1
IC50 (Alpha-glucosidase [1]): 1790 nM

CCc1ccc(NC(=O)CSc2nc3ccccc3cc2-c2nc(-c3ccccc3)c(-c3ccccc3)[nH]2)cc1
Ki (Alpha-glucosidase [5]): 770 nM
IC50 (Alpha-glucosidase [1]): 960 nM

Cc1c(NC(=O)CSc2nc3ccccc3cc2-c2nc(-c3ccccc3)c(-c3ccccc3)[nH]2)cccc1[N+](=O)[O-]
Ki (Alpha-glucosidase [5]): 990 nM
IC50 (Alpha-glucosidase [1]): 1020 nM

Cc1cccc(C)c1NC(=O)CSc1nc2ccccc2cc1-c1nc(-c2ccccc2)c(-c2ccccc2)[nH]1
Ki (Alpha-glucosidase [5]): 1000 nM
IC50 (Alpha-glucosidase [1]): 1250 nM

Cc1cc([N+](=O)[O-])ccc1NC(=O)CSc1nc2ccccc2cc1-c1nc(-c2ccccc2)c(-c2ccccc2)[nH]1
IC50 (Alpha-glucosidase [1]): 1530 nM

O=C(CSc1nc2ccccc2cc1-c1nc(-c2ccccc2)c(-c2ccccc2)[nH]1)Nc1cccc(Cl)c1
IC50 (Alpha-glucosidase [1]): 1850 nM

O=C(CSc1nc2ccccc2cc1-c1nc(-c2ccccc2)c(-c2ccccc2)[nH]1)Nc1ccc(Br)cc1
IC50 (Alpha-glucosidase [1]): 1980 nM

O=C(CSc1nc2ccccc2cc1-c1nc(-c2ccccc2)c(-c2ccccc2)[nH]1)Nc1ccc2ccccc2c1
Ki (Alpha-glucosidase [2]): 2200 nM
IC50 (Alpha-glucosidase [1]): 1220 nM

Cc1ccccc1NC(=O)CSc1nc2ccccc2cc1-c1nc(-c2ccccc2)c(-c2ccccc2)[nH]1
IC50 (Alpha-glucosidase [1]): 1500 nM

O=C(CSc1nc2ccccc2cc1-c1nc(-c2ccccc2)c(-c2ccccc2)[nH]1)Nc1ccc(Cl)cc1
IC50 (Alpha-glucosidase [1]): 1800 nM

Cc1cccc(C)c1NC(=O)CSc1nc2ccccc2cc1/C=N/NC(=O)c1ccccc1
IC50 (Alpha-glucosidase [4]): 14000 nM

C[C@H]1O[C@H](O[C@H]2[C@H](O)[C@@H](O)[C@@H](O[C@H]3[C@H](O)[C@@H](O)C(O)O[C@@H]3CO)O[C@@H]2CO)[C@H](O)[C@@H](O)[C@@H]1N[C@H]1C=C(CO)[C@@H](O)[C@H](O)[C@H]1O (stereo partly drawn) [ACARBOSE]
Activity (Rattus norvegicus [6]): Active
Activity (Rattus norvegicus [7]): Active
Activity (Rattus norvegicus [8]): 115 mg/dL
Activity (Rattus norvegicus [9]): Active

O=C(CSc1nc2ccccc2cc1-c1nc(-c2ccccc2)c(-c2ccccc2)[nH]1)Nc1cccc(Cl)c1Cl
IC50 (Alpha-glucosidase [1]): 1580 nM

Cc1ccc(NC(=O)CSc2nc3ccccc3cc2-c2nc(-c3ccccc3)c(-c3ccccc3)[nH]2)cc1
IC50 (Alpha-glucosidase [1]): 1770 nM

O=C(CSc1nc2ccccc2cc1-c1nc(-c2ccccc2)c(-c2ccccc2)[nH]1)Nc1ccc(F)cc1
Activity [10]: Non-Toxic
Activity (Rattus norvegicus [11]): 242 mg/dL
Activity (Rattus norvegicus [12]): Active
Activity (Rattus norvegicus [13]): Active
Activity (Rattus norvegicus [14]): Active
Activity [15]: Non-Toxic
Activity (Rattus norvegicus [16]): inactive
Activity [17]: Non-Toxic
Activity (Rattus norvegicus [18]): Active
Activity [19]: Non-Toxic
Activity (Rattus norvegicus [20]): 207.83 mg/dL
Activity [21]: Non-Toxic
Activity (Rattus norvegicus [22]): Active
Activity [23]: Non-Toxic
Activity (Rattus norvegicus [24]): inactive
Ki (Alpha-glucosidase [2]): 150 nM
Activity [25]: Non-Toxic
IC50 (Alpha-glucosidase [1]): 180 nM
Activity (Rattus norvegicus [26]): Active
Activity (Rattus norvegicus [8]): 127.83 mg/dL
Activity [27]: Non-Toxic
Activity (Rattus norvegicus [28]): inactive
